What was measured:
[1] = molecular target: T1, catalytic domain of human Bub1 (amino acids 704-1085) (Homo sapiens, UniProt O43683); experiment: Bub1 kinase assay (TR-FRET); assay type: biochemical; settings: 10 μM ATP, avg, read-out: Bub1 avg (IC50 [mol/l])
T1 construct: catalytic domain of human Bub1 (amino acids 704-1085); His6 (N); made in house; host or cells: insect cells (Hi5)
Method in brief: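 Readout is the 665/620 nm TR-FRET ratio from anti-phosphoserine antibody, Eu-labelled anti-mouse IgG and streptavidin-XL665, scaled between no-enzyme and uninhibited controls. Reaction: 1 μM biotinylated peptide, 10 μM ATP, 60 min, 22 °C, after 15 min compound preincubation with His6-Bub1 (704-1085, insect-expressed, ~200 ng/ml).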

[2] = test system: human cervical tumor cell line HeLa (ATCC CCL-2); experiment: SAC-Formation - Nocodazole-Induced Assay; assay type: cell-based; settings: Homo sapiens, HeLa, 24 h, HeLa cells, nocodazole 0.1 μg/ml together with test compound, decrease of mitotic cells (phospho-histone H3 Ser10)
Method in brief: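 HeLa cells, plated overnight, were treated 24 h at 37 °C with nocodazole (0.1 μg/ml final) plus test compound (0.005–20 μM, 0.5% DMSO) added at the same time. After fixation, anti-phospho-histone H3 Ser10 and Hoechst staining gave the mitotic cell fraction by imaging. Values came from four-parameter Hill fits.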

T1 sequence (O43683 704-1085): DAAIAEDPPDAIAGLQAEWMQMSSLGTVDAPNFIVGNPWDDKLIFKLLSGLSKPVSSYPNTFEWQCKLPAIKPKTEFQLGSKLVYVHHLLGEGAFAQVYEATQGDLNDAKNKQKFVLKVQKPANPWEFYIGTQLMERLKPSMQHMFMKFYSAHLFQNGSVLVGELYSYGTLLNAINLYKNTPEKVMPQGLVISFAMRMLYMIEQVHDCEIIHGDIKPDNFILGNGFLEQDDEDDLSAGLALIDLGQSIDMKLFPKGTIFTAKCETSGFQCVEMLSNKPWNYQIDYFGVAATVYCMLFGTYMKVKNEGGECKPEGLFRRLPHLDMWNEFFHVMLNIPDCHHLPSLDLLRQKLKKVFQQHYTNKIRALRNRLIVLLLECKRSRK

SMILES	IC50 [1]	IC50 [2]
Cc1nsc(Nc2cnc(C(F)(F)F)cn2)c1C(=O)Nc1ccc(F)c(OC2CCN(CC(F)F)C2)c1 (stereo not shown) [Example 314, N-(3-{[1-(2,2-difluoroethyl)pyrrolidin-3-yl]oxy}-4-fluorophenyl)-3-methyl-5-{[5-(trifluoromethyl)pyrazin-2-yl]amino}-1,2-thiazole-4-carboxamide]	≥ 20000 nM	53 nM
Cc1nsc(Nc2cnc(C(F)(F)F)cn2)c1C(=O)Nc1ccc(F)c(OC2CCN(CC(F)(F)F)C2)c1 (stereo not shown) [Example 315, N-(4-fluoro-3-{[1-(2,2,2-trifluoroethyl)pyrrolidin-3-yl]oxy}phenyl)-3-methyl-5-{[5-(trifluoromethyl)pyrazin-2-yl]amino}-1,2-thiazole-4-carboxamide]	≥ 20000 nM	4.3 nM
Cc1nsc(Nc2cnc(C(F)(F)F)cn2)c1C(=O)Nc1ccc(F)c(OCC2CCN(CC(F)F)C2)c1 (stereo not shown) [Example 316, N-(3-{[1-(2,2-difluoroethyl)pyrrolidin-3-yl]methoxy}-4-fluorophenyl)-3-methyl-5-{[5-(trifluoromethyl)pyrazin-2-yl]amino}-1,2-thiazole-4-carboxamide]	≥ 20000 nM	28 nM
Cc1nsc(Nc2cnc(C(F)(F)F)cn2)c1C(=O)Nc1ccc(F)c(OCC2CCN(CCF)C2)c1 (stereo not shown) [Example 317, N-(4-fluoro-3-{[1-(2-fluoroethyl)pyrrolidin-3-yl]methoxy}phenyl)-3-methyl-5-{[5-(trifluoromethyl)pyrazin-2-yl]amino}-1,2-thiazole-4-carboxamide]	> 20000 nM	88 nM
Cc1nsc(Nc2cnc(C(F)(F)F)cn2)c1C(=O)Nc1ccc(F)c(OCC2CCN(C(CF)CF)C2)c1 (stereo not shown) [Example 320, N-(3-{[1-(1,3-difluoropropan-2-yl)pyrrolidin-3-yl]methoxy}-4-fluorophenyl)-3-methyl-5-{[5-(trifluoromethyl)pyrazin-2-yl]amino}-1,2-thiazole-4-carboxamide]	≥ 20000 nM	55 nM

Further lines, results first:

IC50 [1]	IC50 [2]	SMILES
≥ 20000 nM	140 nM	Cc1nsc(Nc2cnc(C(F)(F)F)cn2)c1C(=O)Nc1ccc(OC2CCN(C(CF)CF)C2)nc1 (stereo not shown) [Example 313, N-(6-{[1-(1,3-difluoropropan-2-yl)pyrrolidin-3-yl]oxy}pyridin-3-yl)-3-methyl-5-{[5-(trifluoromethyl)pyrazin-2-yl]amino}-1,2-thiazole-4-carboxamide]
14000 nM	140 nM	Cc1nsc(Nc2cnc(C(F)(F)F)cn2)c1C(=O)Nc1ccc(OCCNCCF)nc1 [Example 321, N-(6-{2-[(2-fluoroethyl)amino]ethoxy}pyridin-3-yl)-3-methyl-5-{[5-(trifluoromethyl)pyrazin-2-yl]amino}-1,2-thiazole-4-carboxamide]
≥ 20000 nM	69 nM	Cc1nsc(Nc2cnc(C(F)(F)F)cn2)c1C(=O)Nc1ccc(OCCNCC(F)(F)F)nc1 [Example 322, 3-methyl-N-(6-{2-[(2,2,2-trifluoroethyl)amino]ethoxy}pyridin-3-yl)-5-{[5-(trifluoromethyl)pyrazin-2-yl]amino}-1,2-thiazole-4-carboxamide]

Reference: US20170334899A1, “AMINO-SUBSTITUTED ISOTHIAZOLES” (Bayer Pharma Aktiengesellschaft, priority 2014, published 2017)
